In patent US7008949B2, “Heterocyclic compounds which inhibit leukocyte adhesion mediated by α4 integrins” (Elan Pharmaceuticals, Inc., priority 2003, dated 2006):

Assays:
[1] = Cassette dosing and serum analysis for determination of oral bioavailability; format: in vivo, rat; details: male SD rats, oral cassette of 6 compounds, total dose 10 mg/kg, plasma at 4, 8, 12 h
Protocol: The oral bioavailability was screened by dosing rats with a cassette, i.e. mixture of 6 compounds per dosing solution. The cassette included 5 test articles and a standard compound, for a total dose of 10 mg/kg. Each compound/test article was converted to the sodium salt with equimolar 1 N NaOH and dissolved in water at 2 mg/mL. The cassette was prepared by mixing equal volumes of each of the six solutions. The cassette dosing solution was mixed well and then the pH was adjusted to 7.5–9. The dosing solution was prepared the day before the study and stirred overnight at room temperature.
Male Sprague Dawley (SD) rats from Charles River Laboratories, 6–8 weeks old were used in this screen. Rats were quarantined for at least one day and had continuous access to food and water. On the night before the administration of the cassette, the rats were fasted for approximately 16 h.
Four SD rats were assigned in each cassette. A single dose of the dosing solution was administered orally to each rat. The dosing volume (5 mL/kg) and time were recorded and rats were fed 2 h after dosing.
Blood samples were collected via cardiac puncture at the following time points: 4 h, 8 h and 12 h. Immediately prior to blood collection, rats were anesthetized with CO2 gas within 10–20 seconds. After the 12-hour samples were collected, the rats were euthanized via CO2 asphyxiation followed by cervical dislocation.
Blood samples were kept in heparinized microtainer tubes under sub-ambient temperature (4° C.) before they were processed. Blood samples were centrifuged (10000 rpm for 5 minutes) and plasma samples were removed and stored in a −20° C. freezer until analyzed for drug levels. Drug levels in the plasma were analyzed using the following protocol for direct plasma precipitation.
The in vivo plasma samples were prepared in a 1.5 mL 96-well plate, by adding, in order, 100 μL of the test plasma, 150 μL of methanol, followed by vortexing for 10–20 seconds. 150 μL of 0.05 ng/μL of an Internal Standard in acetonitrile were added and vortexed for 30 seconds.
The standard curve samples were prepared in a 1.5 mL 96-well plate, by adding, in order, 100 μL of control mouse plasma, followed by 150 μL of methanol and vortexing for 10–20 seconds. 150 μL of 0.05 ng/μL of an Internal Standard in acetonitrile were added and vortexed for 30 seconds. The samples were spiked with 0–200 ng (10 concentrations) of the compound of interest in 50% methanol to obtain a standard curve range of 0.5 ng/mL–2,000 ng/mL. Again, the sample was vortexed for 30 seconds.
The samples were then spun for 20–30 minutes at 3000 rpm in an Eppendorf microfuge before 80–90% of supernatant was transferred into a clean 96-well plate. The organic solvent was then evaporated until the samples were dry (under N2 at 40° C./30–60 min (ZymarkTurbovap)).
The residue was then dissolved in […] mobile phase (50% CH3OH/0.1% TFA). LC/MS/MS was then run using a PE-Sciex API-3000 triple quadurpole mass spectrometer (SN0749707), Perkin-Elmer, Series200auto-sampler, and shimadzu 10A pump. Acquisition was done with PE-Sciex Analyst (v1.1) and data analysis and quantification were accomplished using PE-Sciex Analyst (v1.1). A 5–50 μL sample volume was injected onto a reverse phase ThermoHypersil DASH-18 column (Keystone 2.0×20 mm, 5 μm, PN: 8823025-701) using a mobile phase of 25% CH3OH, 0.1% TFA-100% CH3OH, 0.1% TFA. The run time was about 8 minutes at a flow rate of about 300 μL/minutes.
The Area Under the Curve (AUC) was calculated using the linear trapezoidal rule from t=0 to the last sampling time tx (see Handbook of Basic Pharmacokinetics, Wolfgang A. Ritschel and Gregory L. Kearns, 5th ed, 1999). AUC^0→tx═S((Cn+Cn+1)/2))·(tn+1−tn)[(μg/mL)h]
In the case of the cassette dosing paradigm, samples at 4, 8 and 12 h post extravascular dosing, the AUC was calculated from t=0 to t=12 h.

α4β1 Integrin = molecular target: T1, α4β1 Integrin (Homo sapiens, UniProt P05556+P13612); assay: α4β1 Integrin Adhesion Assay: Jurkat cell adhesion to human plasma fibronectin; format: cell-based; details: Jurkat cells
T1 construct: endogenous in cells; host or cells: Jurkat cells
T1 sequence (P13612 34-1032): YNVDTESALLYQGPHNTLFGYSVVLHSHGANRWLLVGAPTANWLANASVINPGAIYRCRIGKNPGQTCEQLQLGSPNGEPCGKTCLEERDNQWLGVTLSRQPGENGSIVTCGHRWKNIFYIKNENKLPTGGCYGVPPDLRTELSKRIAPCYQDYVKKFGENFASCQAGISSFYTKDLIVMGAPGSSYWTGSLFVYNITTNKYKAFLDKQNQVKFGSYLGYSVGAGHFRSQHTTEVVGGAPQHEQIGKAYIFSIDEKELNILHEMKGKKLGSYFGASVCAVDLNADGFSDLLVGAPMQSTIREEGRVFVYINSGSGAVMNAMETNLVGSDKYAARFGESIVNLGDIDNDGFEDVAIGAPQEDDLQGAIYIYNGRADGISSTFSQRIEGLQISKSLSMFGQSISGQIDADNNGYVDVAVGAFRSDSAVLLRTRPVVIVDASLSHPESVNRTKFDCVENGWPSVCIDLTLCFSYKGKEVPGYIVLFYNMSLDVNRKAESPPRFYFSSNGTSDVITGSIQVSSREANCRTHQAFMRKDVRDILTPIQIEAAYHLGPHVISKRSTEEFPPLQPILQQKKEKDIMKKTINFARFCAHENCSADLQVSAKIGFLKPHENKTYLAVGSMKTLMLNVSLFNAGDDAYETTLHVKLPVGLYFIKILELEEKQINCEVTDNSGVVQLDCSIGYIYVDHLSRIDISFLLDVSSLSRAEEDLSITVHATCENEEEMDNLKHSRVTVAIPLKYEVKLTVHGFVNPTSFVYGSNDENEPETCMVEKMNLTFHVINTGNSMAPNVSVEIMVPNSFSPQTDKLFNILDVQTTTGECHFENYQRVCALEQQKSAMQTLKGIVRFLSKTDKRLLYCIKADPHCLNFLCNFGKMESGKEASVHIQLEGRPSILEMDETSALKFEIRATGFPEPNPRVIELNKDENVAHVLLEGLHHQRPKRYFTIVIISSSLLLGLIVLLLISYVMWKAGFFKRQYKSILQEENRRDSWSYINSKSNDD
T1 sequence (P05556 21-798): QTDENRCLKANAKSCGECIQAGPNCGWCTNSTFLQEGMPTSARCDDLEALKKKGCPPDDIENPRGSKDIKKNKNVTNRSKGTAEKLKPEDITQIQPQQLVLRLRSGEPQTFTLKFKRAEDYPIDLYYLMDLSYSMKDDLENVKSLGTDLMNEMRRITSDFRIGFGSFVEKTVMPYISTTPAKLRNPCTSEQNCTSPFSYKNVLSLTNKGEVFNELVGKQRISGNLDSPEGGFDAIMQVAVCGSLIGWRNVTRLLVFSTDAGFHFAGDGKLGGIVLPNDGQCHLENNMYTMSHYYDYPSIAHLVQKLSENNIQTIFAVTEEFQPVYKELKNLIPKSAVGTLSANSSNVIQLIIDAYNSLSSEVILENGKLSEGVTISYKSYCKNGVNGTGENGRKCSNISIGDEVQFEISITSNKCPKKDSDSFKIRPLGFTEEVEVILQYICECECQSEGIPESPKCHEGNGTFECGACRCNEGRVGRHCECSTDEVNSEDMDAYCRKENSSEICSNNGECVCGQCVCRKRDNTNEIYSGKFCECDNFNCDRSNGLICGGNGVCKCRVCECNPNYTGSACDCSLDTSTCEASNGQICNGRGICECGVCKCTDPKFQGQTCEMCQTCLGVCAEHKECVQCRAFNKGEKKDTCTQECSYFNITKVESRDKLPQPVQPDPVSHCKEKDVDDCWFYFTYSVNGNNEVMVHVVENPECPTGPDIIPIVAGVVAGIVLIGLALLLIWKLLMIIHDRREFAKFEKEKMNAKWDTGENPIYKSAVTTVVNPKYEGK
Protocol: 96 well plates (Costar 3590 EIA plates) were coated with human fibronectin (Gibco/BRL, cat #33016-023) at a concentration of 10 μg/mL overnight at 4° C. The plates were then blocked with a solution of bovine serum albumin (BSA; 0.3%) in saline. Jurkat™ cells (maintained in log phase growth) were labeled with Calcein AM according to the manufacturer's instructions, and suspended at a concentration of 2×10^6 cells/mL in Hepes/Saline/BSA. The cells were then exposed to test and control compounds for 30 minutes at room temperature before transfer to individual wells of the fibronectin coated plate. Adhesion was allowed to occur for 35 minutes at 37° C. The wells were then washed by gentle aspiration and pipetting with fresh saline. Fluorescence associated with the remaining adherent cells was quantified using a fluorescence plate reader at EX 485/EM 530.
Cell cultures were prepared by first splitting the stationary phase Jurkat™ cells at 1:10 on day one, and 1:2 on day two to perform assay on day 3. The cells split 1:10 on day one were split 1:4 on day 3 for a day 4 assay.
The assay plates were prepared by first making a working solution of Gibco/BRL Human Fibronectin (cat # 33016-023) in PBS++, at 10 μg/mL.
A Costar 3590 EIA plate was then coated with 50 μL/well for 2 hours at room temperature (thought it can also be left overnight at 4° C.). Finally the plate was asperated and blocked with Hepes/Saline Buffer, 100 μL/well, for 1 hour at RT followed by washing three times with 150 μL of PBS++.
Compound dilutions were accomplished by preparing 1:3 serial dilutions of compounds as follows. For each plate (4 compounds/plate) 600 μL were added to 4 Bio-Rad Titertubes in a Titertube rack. Enough compound was added to each appropriate tube to give a 2× concentration using methods well known in the art. Using Falcon Flexiplates, 100 μL of Hepes/Saline buffer or human serum were added to rows B through G. A multi-channel pipetter set to 180 μL was used to with four tips spaced evenly the pipetter. Each set of four tubes was mixed 5 times and 180 μL of 2× compound was transferred to the first column of each compound dilution in Row B, leaving Row A empty. 180 μL were added to the other wells in Row A. Serial dilutions were performed down the plate by transferring 50 μL to the next dilution and mixing 5 times, changing tips each time after mixing. Dilutions were stopped at Row F. Row G had no compound present.
A 20 μg/mL solution in Hepes/Saline buffer or human serum, of 21/6 antibody was the positive control and was set aside in a reagent trough to add to cell suspension plate.
The cell staining was accomplished by first harvesting the log-phase Jurkat™ cells by centrifugation in 50 mL tubes (1100 rpm for 5 minutes). The cells were resuspended in 50 mL PBS++, spun, and resuspend in 20 mL PBS++. The cells were stained by adding 20 μL of Calcein AM for 30 minutes R.T. The volume was brought to 50 mL with Hepes/Saline buffer and the cells were counted, spun, and resuspend to 2×10^6 cells/mL in Hepes/Saline buffer or human serum.
The compounds were incubated using the following procedure. In a new flexiplate, 65 μL of stained cells were added to Rows B through H. Then 65 μL of 2× compounds were added to the appropriate rows following the plate setup and mixed 3×. 65 μL of 2×-21/6 antibody were added to Row H and mixed 3×. Finally the plate was incubated at room temperature for 30 minutes.
Fibronectin adhesion was measured using a fluorescent plate reader at EX 485/EM 530 after the following work up procedure. After incubation, the cells were mixed 3× and 100 μL were transferred to the Fibronectin coated plates and incubated at 37° C. for about 35 minutes. Each plate was washed, row by row, by gently pipetting 100 μL of R.T. PBS++ down the sides of the wells and turning the plate 90 degrees to aspirate. This procedure was repeated for a total of 3 washes. Each well was filled with 100 μL after washing by pipetting down the side of the well. […]

[2] = IC50, Cell Adhesion to Human Plasma Fibronectin (With Human Serum), with human serum
[3] = IC50, Cell Adhesion to Human Plasma Fibronectin (Without the Human Serum), without human serum

Compound	AUC (average AUC 0→12 h) [1]	IC50 (α4β1 Integrin; [2])	IC50 (α4β1 Integrin; [3])	IC50, Cell Adhesion to Human Plasma Fibronectin (With Human Serum) (α4β1 Integrin; with human serum)	IC50, Cell Adhesion to Human Plasma Fibronectin (Without the Human Serum) (α4β1 Integrin; without human serum)
C#CCN(c1cnc(N(CC)CC)nc1NC(Cc1ccc(OC(=O)N(C)C)cc1)C(=O)O)S(=O)(=O)c1ccc(F)cc1F (stereo not drawn) [Example 28, 2-{2-Diethylamino-5-[(2,4-difluorobenzenesulfonyl)propargylamino]pyrimidin-4-ylamino}-3-(4-dimethylcarbamoyloxyphenyl)propionic acid]	0.7968 (μg/mL)h	72.9 nM	6.34 nM	–	–
2-{2-diethylamino-5-[(3,4-difluorobenzenesulfonyl) ethylamino]pyrimidin-4-ylamino}-3-(4-dimethylcarbamoyloxyphenyl) propionic acid [Example 12]	0.8447 (μg/mL)h	–	–	0.06 µg/mL	0.003 µg/mL
CCN(CC)c1ncc(N(CC2CC2)S(=O)(=O)c2ccc(F)cc2)c(N[C@@H](Cc2ccc(OC(=O)N(C)C)cc2)C(=O)O)n1 [Example 14, 2-{2-diethylamino-5-[(4-fluorobenzenesulfonyl)cylclopropylmethylamino]pyrimidin-4-ylamino}-3-(4-dimethylcarbamoyl-oxyphenyl)propionic acid]	0.7164 (μg/mL)h	63.6 nM	1.59 nM	–	–
CCN(CC)c1ncc(N(C(C)C)S(=O)(=O)c2ccc(Cl)cc2)c(N[C@@H](Cc2ccc(OC(=O)N(C)C)cc2)C(=O)O)n1 [Example 11]	0.4251 (μg/mL)h	362 nM	3.85 nM	–	–
2-{2-diethylamino-5-[(4-chlorobenzenesulfonyl)ethylamino] pyrimidin-4-ylamino}-3-(4-dimethylcarbamoyloxyphenyl)propionic acid [Example 13]	1.5806 (μg/mL)h	–	–	0.075 µg/mL	0.004 µg/mL
2-{2-diethylamino-5-[(2-fluorobenzenesulfonyl)methylamino]pyrimidin-4-ylamino}-3-(4-dimethylcarbamoyloxyphenyl)propionic acid [Example 6]	0.6538 (μg/mL)h	–	–	0.3138 µg/mL	0.000511 µg/mL
CCN(CC)c1ncc(N(C)S(=O)(=O)c2ccc(F)c(F)c2)c(N[C@@H](Cc2ccc(OC(=O)N(C)C)cc2)C(=O)O)n1 [Example 3]	1.5483 (μg/mL)h	251 nM	3.3 nM	–	–
CCN(CC)c1ncc(N(C)S(=O)(=O)c2ccc(F)cc2F)c(N[C@@H](Cc2ccc(OC(=O)N(C)C)cc2)C(=O)O)n1 [Example 17]	1.0075 (μg/mL)h	39.6 nM	1.65 nM	–	–
CCCN(c1cnc(N(CC)CC)nc1NC(Cc1ccc(OC(=O)N(C)C)cc1)C(=O)O)S(=O)(=O)c1ccc(F)cc1 (stereo not drawn) [Example 21, 2-{2-diethylamino-5-[(4-fluorobenzenesulfonyl)-n-propylamino]pyrimidin-4-ylamino}-3-(4-dimethylcarbamoyloxyphenyl) propionic acid]	0.6321 (μg/mL)h	649 nM	5.09 nM	–	–
2-{2-diethylamino-5-[(4-chlorobenzenesulfonyl)methylamino]pyrimidin-4-ylamino}-3-(4-dimethylcarbamoyloxyphenyl)propionic acid [Example 2]	1.8689 (μg/mL)h	–	–	0.317 µg/mL	0.002 µg/mL
CCN(CC)c1ncc(N(C(C)C)S(=O)(=O)c2ccc(F)c(F)c2)c(NC(Cc2ccc(OC(=O)N(C)C)cc2)C(=O)O)n1 (stereo not drawn) [Example 10, 2-{2-diethylamino-5-[(3,4-difluorobenzenesulfonyl)isopropylamino]pyrimidin-4-ylamino}-3-(4-dimethylcarbamoyloxyphenyl) propionic acid]	0.1215 (μg/mL)h	404 nM	7.33 nM	–	–
CCN(CC)c1ncc(N(C)S(=O)(=O)c2ccc(Cl)c(Cl)c2)c(N[C@@H](Cc2ccc(OC(=O)N(C)C)cc2)C(=O)O)n1 [Example 4]	0.5965 (μg/mL)h	625 nM	6.25 nM	–	–
